Measurements as given in PubChem BioAssay AID1963965 (Molecular Pharmacology Branch, DTP, NCI, 2024).

Test system: 996289-038-R-J1-PDC spheroid viability
Test: Anticancer human tumor 996289-038-R-J1-PDC patient-derived colon adenocarcinoma cell line growth inhibition [PI3K]
Settings: spheroids with HUVEC and MSC; for IC50: curve of first compound; for viability, T/C: stronger effect = lower value
How it was run: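 Spheroid viability read-out. Co-cultures contained the tumor line plus HUVEC and human MSCs. Each agent was paired with a PI3K inhibitor (inavolisib, alpelisib, duvelisib, copanlisib) across half-log dilutions starting at clinical Cmax, or at 10 microM when Cmax was unknown.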

[1] = second compound 0.00316 µM, first compound 0.0316 µM
[2] = second compound 0.00316 µM, first compound 0.1 µM
[3] = second compound 0.01 µM, first compound 0.0316 µM
[4] = second compound 0.01 µM, first compound 0.1 µM
[5] = second compound 0.0316 µM, first compound 0.0316 µM
[6] = second compound 0.0316 µM, first compound 0.1 µM
[7] = second compound 0.1 µM, first compound 0.0316 µM
[8] = second compound 0.1 µM, first compound 0.1 µM
[9] = second compound 0.316 µM, first compound 0.0316 µM
[10] = second compound 0.316 µM, first compound 0.1 µM
[11] = second compound 1 µM, first compound 0.0316 µM
[12] = second compound 1 µM, first compound 0.1 µM
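Note: spheroids exposed to compounds for seven days before viability read.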
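Throughout, for viability, T/C: luminescence used as a proxy for viable cell amount; percent viability relative to DMSO vehicle control as 100%.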

What does the source list for CC(C)NCC(C(=O)N1CCN(c2ncnc3c2C(C)CC3O)CC1)c1ccc(Cl)cc1 (centres undefined) + COc1c(OCCCN2CCOCC2)ccc2c3n(c(=NC(=O)c4cnc(N)nc4)nc12)CCN3?
IC50 (second compound 0.00316 µM): > 10000 nM; IC50 (second compound 0.01 µM): > 10000 nM; IC50 (second compound 0.0316 µM): > 10000 nM; IC50 (second compound 0.1 µM): 4890 nM; IC50 (second compound 0.316 µM): < 31.6 nM; IC50 (second compound 1 µM): < 31.6 nM; viability, T/C [1]: 98.9%; viability, T/C [2]: 82.3%; viability, T/C (second compound 0.00316 µM, first compound 0.316 µM): 103%; viability, T/C (second compound 0.00316 µM, first compound 1 µM): 103%; viability, T/C (second compound 0.00316 µM, first compound 3.16 µM): 103%; viability, T/C (second compound 0.00316 µM, first compound 10 µM): 62.2%; viability, T/C [3]: 87.6%; viability, T/C [4]: 84.9%; viability, T/C (second compound 0.01 µM, first compound 0.316 µM): 101%; viability, T/C (second compound 0.01 µM, first compound 1 µM): 102%; viability, T/C (second compound 0.01 µM, first compound 3.16 µM): 106%; viability, T/C (second compound 0.01 µM, first compound 10 µM): 65.3%; viability, T/C [5]: 86.3%; viability, T/C [6]: 77.1%; viability, T/C (second compound 0.0316 µM, first compound 0.316 µM): 78%; viability, T/C (second compound 0.0316 µM, first compound 1 µM): 89%; viability, T/C (second compound 0.0316 µM, first compound 3.16 µM): 76.1%; viability, T/C (second compound 0.0316 µM, first compound 10 µM): 51.1%; viability, T/C [7]: 59.7%; viability, T/C [8]: 55.8%; viability, T/C (second compound 0.1 µM, first compound 0.316 µM): 57%; viability, T/C (second compound 0.1 µM, first compound 1 µM): 66.9%; viability, T/C (second compound 0.1 µM, first compound 3.16 µM): 57.3%; viability, T/C (second compound 0.1 µM, first compound 10 µM): 36.7%; viability, T/C [9]: 32.9%; viability, T/C [10]: 33.7%; viability, T/C (second compound 0.316 µM, first compound 0.316 µM): 38.1%; viability, T/C (second compound 0.316 µM, first compound 1 µM): 32.5%; viability, T/C (second compound 0.316 µM, first compound 3.16 µM): 38.6%; viability, T/C (second compound 0.316 µM, first compound 10 µM): 27.1%; viability, T/C [11]: 24%; viability, T/C [12]: 18.5%; viability, T/C (second compound 1 µM, first compound 0.316 µM): 18%; viability, T/C (second compound 1 µM, first compound 1 µM): 23%; viability, T/C (second compound 1 µM, first compound 3.16 µM): 20.1%; viability, T/C (second compound 1 µM, first compound 10 µM): 15.3%

Which results are given for Cn1ncnc1[C@H]1c2n[nH]c(=O)c3cc(F)cc(c23)N[C@@H]1c1ccc(F)cc1 + COc1c(OCCCN2CCOCC2)ccc2c3n(c(=NC(=O)c4cnc(N)nc4)nc12)CCN3?
IC50 (second compound 0.00316 µM): > 100 nM; IC50 (second compound 0.01 µM): > 100 nM; IC50 (second compound 0.0316 µM): > 100 nM; IC50 (second compound 0.1 µM): > 100 nM; IC50 (second compound 0.316 µM): < 0.316 nM; IC50 (second compound 1 µM): < 0.316 nM; viability, T/C (second compound 0.00316 µM, first compound 0.000316 µM): 110%; viability, T/C (second compound 0.00316 µM, first compound 0.001 µM): 106%; viability, T/C (second compound 0.00316 µM, first compound 0.00316 µM): 102%; viability, T/C (second compound 0.00316 µM, first compound 0.01 µM): 112%; viability, T/C [1]: 103%; viability, T/C [2]: 103%; viability, T/C (second compound 0.01 µM, first compound 0.000316 µM): 97.7%; viability, T/C (second compound 0.01 µM, first compound 0.001 µM): 92.6%; viability, T/C (second compound 0.01 µM, first compound 0.00316 µM): 95.3%; viability, T/C (second compound 0.01 µM, first compound 0.01 µM): 100%; viability, T/C [3]: 97.3%; viability, T/C [4]: 100%; viability, T/C (second compound 0.0316 µM, first compound 0.000316 µM): 87.8%; viability, T/C (second compound 0.0316 µM, first compound 0.001 µM): 91.3%; viability, T/C (second compound 0.0316 µM, first compound 0.00316 µM): 80.3%; viability, T/C (second compound 0.0316 µM, first compound 0.01 µM): 79.4%; viability, T/C [5]: 97.7%; viability, T/C [6]: 70.8%; viability, T/C (second compound 0.1 µM, first compound 0.000316 µM): 69.4%; viability, T/C (second compound 0.1 µM, first compound 0.001 µM): 68.4%; viability, T/C (second compound 0.1 µM, first compound 0.00316 µM): 67.4%; viability, T/C (second compound 0.1 µM, first compound 0.01 µM): 63.3%; viability, T/C [7]: 64.6%; viability, T/C [8]: 48.6%; viability, T/C (second compound 0.316 µM, first compound 0.000316 µM): 41.8%; viability, T/C (second compound 0.316 µM, first compound 0.001 µM): 39.1%; viability, T/C (second compound 0.316 µM, first compound 0.00316 µM): 46.8%; viability, T/C (second compound 0.316 µM, first compound 0.01 µM): 35.3%; viability, T/C [9]: 44.2%; viability, T/C [10]: 43.8%; viability, T/C (second compound 1 µM, first compound 0.000316 µM): 22.6%; viability, T/C (second compound 1 µM, first compound 0.001 µM): 22.6%; viability, T/C (second compound 1 µM, first compound 0.00316 µM): 23.1%; viability, T/C (second compound 1 µM, first compound 0.01 µM): 18.3%; viability, T/C [11]: 25.7%; viability, T/C [12]: 20.8%
